Like-named read-outs stand apart in the source and are kept apart here.
How the values were obtained:
[1] = target: T1, Bcl-xL (GST-Bcl-xL) (Homo sapiens, UniProt Q07817); experiment: TR-FRET binding assay, competition with F-Bak for the Bcl-xL binding site
[2] = target: T1, Bcl-xL (GST-Bcl-xL); experiment: AlphaScreen Bcl-xL binding assay, competition with biotinylated Bim peptide; design: made in house; settings: values listed in the order of Table 1; read-out: Alphascreen results (IC50) against the Bcl-xL protein
Method in brief: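 Acceptor beads with GST-Bcl-xL were combined with donor beads carrying biotinylated Bim peptide after each bead mix was preincubated 30 min at room temperature. Compounds in DMSO, 2-fold serially diluted, were incubated 30 min at room temperature before donor addition, with duplicate plates. Percent inhibition was taken against no-protein and DMSO controls, and IC50 was calculated.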

[3] = values listed in the order of Table 1, read-out: TR-FRET assay results (Ki), Bcl-xL

T1 sequence (Q07817 whole entry, species assumed): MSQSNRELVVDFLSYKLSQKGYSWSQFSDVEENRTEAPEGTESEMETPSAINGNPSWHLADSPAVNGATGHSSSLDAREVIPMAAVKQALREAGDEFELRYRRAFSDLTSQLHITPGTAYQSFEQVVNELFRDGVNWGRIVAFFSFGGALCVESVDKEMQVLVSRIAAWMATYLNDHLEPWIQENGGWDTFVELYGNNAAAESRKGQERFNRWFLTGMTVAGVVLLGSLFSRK

SMILES | Ki [1, 3] | IC50 [2] | Ki ([1]; with 1% human serum (HS))
N#Cc1c(-c2ccc(OCCCc3sc(N4CCc5cccc(C(=O)Nc6nc7ccccc7s6)c5C4)nc3C(=O)O)cc2)n[nH]c1N [Example 31, 5-(3-(4-(5-amino-4-cyano-1H-pyrazol-3-yl)phenoxy)propyl)-2-(8-(benzo[d]thiazol-2-ylcarbamoyl)-3,4-dihydroisoquinolin-2(1H)-yl)thiazole-4-carboxylic acid] | 0.1 nM | 0.3 nM | –
N#Cc1c(-c2ccc(O)cc2)n[nH]c1NCCCc1sc(N2CCc3cccc(C(=O)Nc4nc5ccccc5s4)c3C2)nc1C(=O)O [Example 32, 2-(8-(benzo[d]thiazol-2-ylcarbamoyl)-3,4-dihydroisoquinolin-2(1H)-yl)-5-(3-(4-cyano-3-(4-hydroxyphenyl)-1H-pyrazol-5-ylamino)propyl)thiazole-4-carboxylic acid] | 17 nM | 50 nM | –
O=C(Nc1nc2ccccc2s1)c1cccc2c1CN(c1nc(C(=O)O)c(-c3ccc(CO)cc3)s1)CC2 [Example 34, 2-(8-(benzo[d]thiazol-2-ylcarbamoyl)-3,4-dihydroisoquinolin-2(1H)-yl)-5-(4-(hydroxymethyl)phenyl)thiazole-4-carboxylic acid] | 4 nM | 5 nM | –
N#Cc1c(-c2ccc(OCc3ccc(-c4sc(N5CCc6cccc(C(=O)Nc7nc8ccccc8s7)c6C5)nc4C(=O)O)cc3)cc2)n[nH]c1N [Example 35, 5-(4-((4-(5-amino-4-cyano-1H-pyrazol-3-yl)phenoxy)methyl)phenyl)-2-(8-(benzo[d]thiazol-2-ylcarbamoyl)-3,4-dihydroisoquinolin-2(1H)-yl)thiazole-4-carboxylic acid] | 4 nM | 10 nM | –
O=C(Nc1nc2ccccc2s1)c1cccc2c1CN(c1nc(C(=O)O)c(CCCO)s1)CC2 [Example 38, 2-(8-(Benzo[d]thiazol-2-ylcarbamoyl)-3,4-dihydroisoquinolin-2(1H)-yl)-5-(3-hydroxypropyl)thiazole-4-carboxylic acid] | 5 nM | 5 nM | –
O=C(Nc1nc2ccccc2s1)c1cccc2c1CN(c1nc(C(=O)O)c(CCCOc3ccc(-c4cccnc4)cc3)s1)CC2 [Example 41, 2-(8-(Benzo[d]thiazol-2-ylcarbamoyl)-3,4-dihydroisoquinolin-2(1H)-yl)-5-(3-(4-(pyridin-3-yl)phenoxy)propyl)thiazole-4-carboxylic acid] | 0.1 nM | 0.7 nM | –
N#Cc1c(-c2ccc(OCc3sc(N4CCc5cccc(C(=O)Nc6nc7ccccc7s6)c5C4)nc3C(=O)O)cc2)n[nH]c1N [Example 45, 5-((4-(5-amino-4-cyano-1H-pyrazol-3-yl)phenoxy)methyl)-2-(8-(benzo[d]thiazol-2-ylcarbamoyl)-3,4-dihydroisoquinolin-2(1H)-yl)thiazole-4-carboxylic acid] | 1 nM | 4 nM | –
O=C(Nc1nc2ccccc2s1)c1cccc2c1CN(c1nc(C(=O)O)c(CCCOc3ccc(-n4cccn4)cc3)s1)CC2 [Example 48, 5-(3-(4-(1H-pyrazol-1-yl)phenoxy)propyl)-2-(8-(benzo[d]thiazol-2-ylcarbamoyl)-3,4-dihydroisoquinolin-2(1H)-yl)thiazole-4-carboxylic acid] | 0.05 nM | 0.3 nM | –
O=C(Nc1nc2ccccc2s1)c1cccc2c1CN(c1nc(C(=O)O)c(CCOc3ccc(-n4ncc5cncnc54)cc3)s1)CC2 [Example 49, 5-(2-(4-(1H-pyrazolo[3,4-d]pyrimidin-1-yl)phenoxy)ethyl)-2-(8-(benzo[d]thiazol-2-ylcarbamoyl)-3,4-dihydroisoquinolin-2(1H)-yl)thiazole-4-carboxylic acid] | 12 nM | 80 nM | –
O=C(Nc1nc2ccccc2s1)c1cccc2c1CN(c1nc(C(=O)O)c(CCOc3cccc(-n4ncc5cncnc54)c3)s1)CC2 [Example 50, 5-(2-(3-(1H-pyrazolo[3,4-d]pyrimidin-1-yl)phenoxy)ethyl)-2-(8-(benzo[d]thiazol-2-ylcarbamoyl)-3,4-dihydroisoquinolin-2(1H)-yl)thiazole-4-carboxylic acid] | 2 nM | 10 nM | –
N#Cc1cscc1-c1ccc(OCCCc2sc(N3CCc4cccc(C(=O)Nc5nc6ccccc6s5)c4C3)nc2C(=O)O)cc1 [Example 51, 2-[8-(Benzothiazol-2-ylcarbamoyl)-3,4-dihydro-1H-isoquinolin-2-yl]-5-{3-[4-(4-cyano-thiophen-3-yl)-phenoxy]-propyl}-thiazole-4-carboxylic acid] | 0.3 nM | 6 nM | –
O=C(Nc1nc2ccccc2s1)c1cccc2c1CN(c1nc(C(=O)O)c(CN3CCN(c4ccccc4)CC3)s1)CC2 [Example 62, 2-(8-(benzo[d]thiazol-2-ylcarbamoyl)-3,4-dihydroisoquinolin-2(1H)-yl)-5-((4-phenylpiperazin-1-yl)methyl)thiazole-4-carboxylic acid] | 130 nM | 1600 nM | –
O=C(Nc1nc2ccccc2s1)c1cccc2c1CN(c1nc(C(=O)O)c(CN3CCC(c4ccccc4)CC3)s1)CC2 [Example 63, 2-(8-(benzo[d]thiazol-2-ylcarbamoyl)-3,4-dihydroisoquinolin-2(1H)-yl)-5-((4-phenylpiperidin-1-yl)methyl)thiazole-4-carboxylic acid] | 248 nM | 574 nM | –
O=C(Nc1nc2ccccc2s1)c1cccc2c1CN(c1nc(C(=O)O)c(CN3CCC3c3ccccc3)s1)CC2 (centres unmarked) [Example 71, 2-[8-(Benzothiazol-2-ylcarbamoyl)-3,4-dihydro-1H-isoquinolin-2-yl]-5-(2-phenyl-azetidin-1-ylmethyl)-thiazole-4-carboxylic acid] | 174 nM | 570 nM | –
Nc1nc2ccccc2n1-c1ccc(OCCCc2sc(N3CCc4cccc(C(=O)Nc5nc6ccccc6s5)c4C3)nc2C(=O)O)cc1 [Example 77, 5-(3-(4-(2-amino-1H-benzo[d]imidazol-1-yl)phenoxy)propyl)-2-(8-(benzo[d]thiazol-2-ylcarbamoyl)-3,4-dihydroisoquinolin-2(1H)-yl)thiazole-4-carboxylic acid] | 7 nM | 34 nM | –
CN1CCN(C(=O)c2ccc(OCCCc3ccc(N4CCc5cccc(C(=O)Nc6nc7ccccc7s6)c5C4)nc3C(=O)O)cc2)CC1 [Example 98, 6-(8-(benzo[d]thiazol-2-ylcarbamoyl)-3,4-dihydroisoquinolin-2(1H)-yl)-3-(3-(4-(4-methylpiperazine-1-carbonyl)phenoxy)propyl)picolinic acid] | 10 nM | 140 nM | –
CN(C)CCc1ccc(OCCCc2ccc(N3CCc4cccc(C(=O)Nc5nc6ccccc6s5)c4C3)nc2C(=O)O)cc1 [Example 102, 6-(8-(benzo[d]thiazol-2-ylcarbamoyl)-3,4-dihydroisoquinolin-2(1H)-yl)-3-(3-(4-(2-(dimethylamino)ethyl)phenoxy)propyl)picolinic acid] | 2 nM | 20 nM | –
CN(C)CCCc1ccc(OCCCc2sc(N3CCc4cccc(C(=O)Nc5nc6ccccc6s5)c4C3)nc2C(=O)O)c(F)c1 [Example 103, 2-(8-(benzo[d]thiazol-2-ylcarbamoyl)-3,4-dihydroisoquinolin-2(1H)-yl)-5-(3-(4-(3-(dimethylamino)propyl)-2-fluorophenoxy)propyl)thiazole-4-carboxylic acid] | – | 0.4 nM | 0.006 nM
CN1CCC(Nc2ccc(OCCCc3ccc(N4CCc5cccc(C(=O)Nc6nc7ccccc7s6)c5C4)nc3C(=O)O)cc2)CC1 [Example 104, 6-(8-(Benzo[d]thiazol-2-ylcarbamoyl)-3,4-dihydroisoquinolin-2(1H)-yl)-3-(3-(4-(1-methylpiperidin-4-ylamino)phenoxy)propyl)picolinic acid] | 1 nM | 9.6 nM | –
CN1CCN(c2cccc(OCCCc3ccc(N4CCc5cccc(C(=O)Nc6nc7ccccc7s6)c5C4)nc3C(=O)O)c2)CC1 [Example 105, 6-(8-(benzo[d]thiazol-2-ylcarbamoyl)-3,4-dihydroisoquinolin-2(1H)-yl)-3-(3-(3-(4-methylpiperazin-1-yl)phenoxy)propyl)picolinic acid] | 0.3 nM | 2.2 nM | –
CN1CCN(c2cc(F)c(OCCCc3sc(N4CCc5cccc(C(=O)Nc6nc7ccccc7s6)c5C4)nc3C(=O)O)cc2F)CC1 [Example 108, 2-(8-(benzo[d]thiazol-2-ylcarbamoyl)-3,4-dihydroisoquinolin-2(1H)-yl)-5-(3-(2,5-difluoro-4-(4-methylpiperazin-1-yl)phenoxy)propyl)thiazole-4-carboxylic acid] | 0.02 nM | 0.4 nM | –
O=C(Nc1nc2ccccc2s1)c1cccc2c1CN(c1ccc(CCCOc3ccnc(Cl)c3)c(C(=O)O)n1)CC2 [Example 109] | 0.6 nM | 10.6 nM | –
CN(C)CCOc1cnc(-c2ccc(OCCCc3ccc(N4CCc5cccc(C(=O)Nc6nc7ccccc7s6)c5C4)nc3C(=O)O)cc2)nc1 [Example 112, 6-(8-(benzo[d]thiazol-2-ylcarbamoyl)-3,4-dihydroisoquinolin-2(1H)-yl)-3-(3-(4-(5-(2-(dimethylamino)ethoxy)pyrimidin-2-yl)phenoxy)propyl)picolinic acid] | 0.2 nM | 0.45 nM | –
CN(C)CCOc1cccc(OCCCc2ccc(N3CCc4cccc(C(=O)Nc5nc6ccccc6s5)c4C3)nc2C(=O)O)c1 [Example 113, 6-(8-(benzo[d]thiazol-2-ylcarbamoyl)-3,4-dihydroisoquinolin-2(1H)-yl)-3-(3-(3-(2-(dimethylamino)ethoxy)phenoxy)propyl)picolinic acid] | 0.2 nM | 0.9 nM | –
O=C(Nc1nc2ccccc2s1)c1cccc2c1CN(c1nc(C(=O)O)c(CCCOc3ccc(OCCN4CCCC4)cc3)s1)CC2 [Example 114, 2-(8-(benzo[d]thiazol-2-ylcarbamoyl)-3,4-dihydroisoquinolin-2(1H)-yl)-5-(3-(4-(2-(pyrrolidin-1-yl)ethoxy)phenoxy)propyl)thiazole-4-carboxylic acid] | 0.04 nM | 0.14 nM | –

Reference: patent US8232273B2, “Heterocyclic compounds and methods of use” (Genentech, Inc., priority 2008, dated 2012)
